Reference: US10065948B2, “Histone deacetylase inhibitors and compositions and methods of use thereof” (CHDI Foundation, Inc., priority 2014, dated 2018)

Legend:
[1] = tested on: cellular histone deacetylase enzymatic activity in Jurkat E6-1 cells; assay: Inhibition of cellular HDAC activity, Boc-Lys(Tfa)-AMC substrate (Cell Lys-TFA); type: cell-based
Summary of the method: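 Jurkat E6-1 cells (75,000/well) were treated with a 16-point compound dilution for 2 h at 37 °C, then exposed to Boc-Lys(Tfa)-AMC for 3 h. Lysis buffer containing trypsin was added overnight (15-16 h), and AMC fluorescence was read at Ex 355/Em 460 nm.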

[2] = tested on: cellular histone deacetylase activity (Lys-Ac); assay: Inhibition of cellular HDAC activity (Cell Lys-Ac); type: cell-based; settings: Lys-Ac substrate
[3] = biological target: Histone Deacetylase 4 (HDAC4) catalytic domain (Homo sapiens (Human), UniProt P56524); assay: Biochemical HDAC inhibition assay, fluorogenic substrate Boc-Lys(Tfa)-AMC
Procedure: The potency of compounds is quantified by measuring the Histone Deacetylase 4 (HDAC4) catalytic domain enzymatic activity using the fluorogenic substrate, Boc-Lys(Tfa)-AMC. The substrate is deacetylated to Boc-Lys-AMC by HDAC4. Cleavage by trypsin results in the release of the fluorophore AMC from the deacetylated substrate. The fluorescence of the sample is directly related to the histone deacetylase activity in the sample.
Stocks of 60 μL aliquots of the 10 mM compound in DMSO are prepared and stored at −20° C. From one stock aliquot of each compound to be tested and the reference compound, a 16-point serial dilution is prepared according to Table 1 using a 125 μL 16-channel Matrix multi-channel pipette (Matrix Technologies Ltd).
2 μL (200×) of each diluted solution and each control (full activity: 100% DMSO alone or full inhibition 1 mM) is stamped into V-bottomed polypropylene 384-well compound plates using either the Bravo (384-well head from Agilent) or 12.5 μL 16-channel Matrix multi-channel pipette (Matrix Technologies Ltd). Each well with the 200× compound solution is diluted 1:20 by the addition of 38 μL assay buffer+DMSO (10.5% DMSO, 45 mM Tris-HCl, 123 mM NaCl, 2.4 mM KCl, and 0.9 mM MgCl2 at pH 8.0 and equilibrated to room temperature).
The HDAC4 catalytic domain enzyme is human catalytic domain HDAC4 protein (amino acids 648-1032) with a C-terminal 6× histidine tag, produced by BioFocus. A working solution of enzyme is prepared from a 500 μg/mL stock aliquot of HDAC4 catalytic domain (thawed on ice) diluted to 0.2 μg/mL with assay buffer (50 mM Tris-HCl, 137 mM NaCl, 2.7 mM KCl, and 1 mM MgCl2 at pH 8 and equilibrated to room temperature) just prior to the addition of the enzyme to the assay.
5× (50 μM) substrate is prepared just prior to the addition to the assay. A 1 mM substrate stock is made by diluting a 100 mM Boc-Lys(Tfa)-AMC in DMSO solution 1:100 by adding it drop-wise to assay buffer (equilibrated to room temperature) while vortexing at slow speed to prevent precipitation. The 5× substrate is prepared by diluting the 1 mM substrate solution 1:20 by adding it drop-wise to assay buffer (equilibrated to room temperature) while vortexing at slow speed to prevent precipitation.
3× (30 μM) Developer/Stop Solution is prepared just prior to addition to the plate by diluting a stock solution of 10 mM reference compound 1:333 in 25 mg/mL trypsin (PAA Laboratories Ltd.) equilibrated to room temperature.
5 μL of each solution of 1:20 diluted compound from above is transferred to a clear bottomed, black, 384-well assay plate using the Bravo or the Janus (384-well MDT head from Perkin Elmer). Using a 16-channel Matrix multi-channel pipette, 35 μL of the working solution of HDAC4 catalytic domain enzyme (0.2 μg/mL in assay buffer) is transferred to the assay plate. […] The assay plate is then shaken for two minutes on an orbital shaker at 900 rpm (rotations per minute). Next the plate is incubated for 15 minutes at 37° C. The reaction is stopped by adding 25 μL of 3× (30 μM) developer/stop solution to the assay plates using either the Bravo, Janus or a 16-channel Matrix multi-channel pipette. Assay plates are then shaken for 5 minutes on an orbital shaker at 1200 rpm. Next, the assay plates are incubated at 37° C. for 1 hour in a tissue culture incubator. Finally, the fluorescence is measured (Excitation: 355 nm, Emission: 460 nm) using PerkinElmer EnVision in top read mode.

[4] = Homo sapiens, Jurkat E6.1, Lys-TFA substrate

Histone Deacetylase 4 (HDAC4) catalytic domain, sequence (P56524 648-1032): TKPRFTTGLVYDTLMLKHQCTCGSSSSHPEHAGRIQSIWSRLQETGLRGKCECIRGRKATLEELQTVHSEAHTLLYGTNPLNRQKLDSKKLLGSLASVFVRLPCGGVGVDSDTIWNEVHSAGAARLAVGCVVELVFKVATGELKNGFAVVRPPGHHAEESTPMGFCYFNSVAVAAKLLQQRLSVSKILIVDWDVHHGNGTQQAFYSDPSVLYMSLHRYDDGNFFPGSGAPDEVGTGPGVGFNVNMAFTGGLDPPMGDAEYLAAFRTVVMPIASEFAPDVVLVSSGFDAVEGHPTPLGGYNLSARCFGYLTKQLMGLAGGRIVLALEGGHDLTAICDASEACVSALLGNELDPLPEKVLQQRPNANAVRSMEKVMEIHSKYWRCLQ

Structure (SMILES)	IC50 [1, 4] [nM]	IC50 [2] [nM]	IC50 [3] [nM]	IC50 ([1]; Lys-TFA substrate) [nM]
Cc1c(F)cccc1[C@]1(C(=O)NO)Cc2cn(-c3ccc(OC(F)F)cc3)nc2C1 [Example 21, (S)-2-(4-(difluoromethoxy)phenyl)-5-(3-fluoro-2-methylphenyl)-N-hydroxy-2,4,5,6-tetrahydrocyclopenta[c]pyrazole-5-carboxamide]	175	> 50000	147	–
Cc1cccc(-n2ncc3c2C[C@](C(=O)NO)(c2cccc(F)c2C)C3)c1 [Example 24, (S)-5-(3-Fluoro-2-methylphenyl)-N-hydroxy-1-(m-tolyl)-1,4,5,6-tetrahydrocyclopenta[c]pyrazole-5-carboxamide]	64	> 50000	28	–
Cc1cccc(-n2cc3c(n2)C[C@](C(=O)NO)(c2cccc(F)c2C)C3)c1 [Example 25, (S)-5-(3-fluoro-2-methylphenyl)-N-hydroxy-2-(m-tolyl)-2,4,5,6-tetrahydrocyclopenta[c]pyrazole-5-carboxamide]	160	> 50000	76	–
Cc1cnccc1-n1ncc2c1C[C@](C(=O)NO)(c1cccc(F)c1C)C2 [Example 26, (S)-5-(3-Fluoro-2-methylphenyl)-N-hydroxy-1-(3-methylpyridin-4-yl)-1,4,5,6-tetrahydrocyclopenta[c]pyrazole-5-carboxamide]	71	> 50000	57	–
Cc1cnccc1-n1cc2c(n1)C[C@](C(=O)NO)(c1cccc(F)c1C)C2 [Example 27, (S)-5-(3-fluoro-2-methylphenyl)-N-hydroxy-2-(3-methylpyridin-4-yl)-2,4,5,6-tetrahydrocyclopenta[c]pyrazole-5-carboxamide]	116	> 50000	53	–
Cc1c(F)cccc1C1(C(=O)NO)CCc2nn(Cc3ccc(F)cc3)cc2C1 (stereo not drawn) [Example 36, 5-(3-Fluoro-2-methylphenyl)-1-(4-fluorobenzyl)-N-hydroxy-4,5,6,7-tetrahydro-1H-indazole-5-carboxamide and 5-(3-fluoro-2-methylphenyl)-2-(4-fluorobenzyl)-N-hydroxy-4,5,6,7-tetrahydro-2H-indazole-5-carboxamide]	–	> 50000	600	370
Cc1c(F)cccc1C1(C(=O)NO)CCc2nn(CC(F)(F)F)c(C3CC3)c2C1 (stereo not drawn) [Example 39, 3-Cyclopropyl-5-(3-fluoro-2-methylphenyl)-N-hydroxy-2-(2,2,2-trifluoroethyl)-4,5,6,7-tetrahydro-2H-indazole-5-carboxamide]	1800	> 50000	4400	–
Cc1c(F)cccc1C1(C(=O)NO)CCc2nc(C3CC3)[nH]c(=O)c2C1 (stereo not drawn) [Example 40, 2-Cyclopropyl-6-(3-fluoro-2-methylphenyl)-N-hydroxy-4-oxo-3,4,5,6,7,8-hexahydroquinazoline-6-carboxamide]	580	> 50000	1600	–
Cc1c(F)cccc1C1(C(=O)NO)CCc2nc(NS(=O)(=O)c3ccccc3)sc2C1 (stereo not drawn) [Example 41, 6-(3-Fluoro-2-methylphenyl)-N-hydroxy-2-(phenylsulfonamido)-4,5,6,7-tetrahydrobenzo[d]thiazole-6-carboxamide]	1600	> 50000	190	–
Cc1c(F)cccc1C1(C(=O)NO)CCc2nc(C3CC3)sc2C1 (stereo not drawn) [Example 42, 2-Cyclopropyl-6-(3-fluoro-2-methylphenyl)-N-hydroxy-4,5,6,7-tetrahydrobenzo[d]thiazole-6-carboxamide]	320	> 50000	770	–
Cc1c(F)cccc1C1(C(=O)NO)CCc2nc(-c3cncnc3)sc2C1 (stereo not drawn) [Example 43, 6-(3-Fluoro-2-methylphenyl)-N-hydroxy-2-(pyrimidin-5-yl)-4,5,6,7-tetrahydrobenzo[d]thiazole-6-carboxamide]	660	> 50000	1900	–
Cc1c(F)cccc1C1(C(=O)NO)CCc2ncsc2C1 (stereo not drawn) [Example 44, 6-(3-Fluoro-2-methylphenyl)-N-hydroxy-4,5,6,7-tetrahydrobenzo[d]thiazole-6-carboxamide]	1500	> 50000	1000	–
Cc1c(F)cccc1C1(C(=O)NO)CCc2ncncc2C1 (stereo not drawn) [Example 45, 6-(3-Fluoro-2-methylphenyl)-N-hydroxy-5,6,7,8-tetrahydroquinazoline-6-carboxamide]	2600	> 50000	3700	–
Cc1c(F)cccc1C1(C(=O)NO)CCc2nc(C3CC3)ncc2C1 (stereo not drawn) [Example 46, 2-Cyclopropyl-6-(3-fluoro-2-methylphenyl)-N-hydroxy-5,6,7,8-tetrahydroquinazoline-6-carboxamide]	760	> 50000	1600	–
Cc1c(F)cccc1[C@]1(C(=O)NO)Cc2cnn(C(C)C)c2C1 [Example 53, (S)-5-(3-Fluoro-2-methylphenyl)-N-hydroxy-1-isopropyl-1,4,5,6-tetrahydrocyclopenta[c]pyrazole-5-carboxamide]	230	> 50000	67	–

Results, then the compound that gave them:

IC50 [1, 4] [nM]	IC50 [2] [nM]	IC50 [3] [nM]	IC50 ([1]; Lys-TFA substrate) [nM]	Structure (SMILES)
69	> 50000	65	–	Cc1c(F)cccc1[C@]1(C(=O)NO)Cc2cn(-c3ncccc3Cl)nc2C1 [Example 28, (S)-2-(3-Chloropyridin-2-yl)-5-(3-fluoro-2-methylphenyl)-N-hydroxy-2,4,5,6-tetrahydrocyclopenta[c]pyrazole-5-carboxamide]
69	> 50000	104	–	Cc1c(F)cccc1[C@]1(C(=O)NO)Cc2cn(-c3ncccc3F)nc2C1 [Example 29, (S)-5-(3-Fluoro-2-methylphenyl)-2-(3-fluoropyridin-2-yl)-N-hydroxy-2,4,5,6-tetrahydrocyclopenta[c]pyrazole-5-carboxamide]
1700	> 50000	1000	–	Cc1c(F)cccc1[C@@]1(C(=O)NO)Cc2cnn(-c3ccccc3)c2C1 [Example 30, (R)-5-(3-Fluoro-2-methylphenyl)-N-hydroxy-1-phenyl-1,4,5,6-tetrahydrocyclopenta[c]pyrazole-5-carboxamide]
1100	> 50000	3200	–	Cc1c(F)cccc1C1(C(=O)NO)CCc2nc(-c3ccccc3)ncc2C1 (stereo not drawn) [Example 47, 6-(3-Fluoro-2-methylphenyl)-N-hydroxy-2-phenyl-5,6,7,8-tetrahydroquinazoline-6-carboxamide]
60	> 50000	156	–	Cc1c(F)cccc1[C@]1(C(=O)NO)Cc2cnc(-c3ccccc3Cl)nc2C1 [Example 48, (S)-2-(2-Chlorophenyl)-6-(3-fluoro-2-methylphenyl)-N-hydroxy-6,7-dihydro-5H-cyclopenta[d]pyrimidine-6-carboxamide]
250	> 50000	102	–	Cc1c(F)cccc1[C@]1(C(=O)NO)CCc2nc(-c3ccccc3Cl)ncc21 [Example 49, (R)-2-(2-chlorophenyl)-5-(3-fluoro-2-methylphenyl)-N-hydroxy-6,7-dihydro-5H-cyclopenta[d]pyrimidine-5-carboxamide]
1800	> 50000	880	–	Cc1c(F)cccc1[C@]1(C(=O)NO)Cc2cnc(C(F)(F)F)nc2C1 [Example 56, (S)-6-(3-Fluoro-2-methylphenyl)-N-hydroxy-2-(trifluoromethyl)-6,7-dihydro-5H-cyclopenta[d]pyrimidine-6-carboxamide]
